Reference: patent publication US20230151003A1, “COMPOUNDS AND METHODS OF USE” (Exelixis, Inc., priority 2020, published 2023)

Molecular target: KDR (Homo sapiens, UniProt P35968)
Assay: KDR autophosphorylation ELISA in HUVEC cells
Assay type: cell-based
Parameters: endogenous in cells; host or cells: HUVEC (Lonza #C2519A)
Conditions: Table 3 Cellular Activities, VEGF165-stimulated, phospho-KDR ELISA
In short: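 Inhibition of VEGF165-induced KDR phosphorylation was determined in serum-starved HUVEC after 1 h compound pretreatment and 5 min stimulation with 100 ng/mL VEGF165. Lysate phospho-KDR was measured by ELISA; IC50 values came from a 4-parameter logistic fit of 8-point curves.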

Chain of KDR (P35968 20-1356): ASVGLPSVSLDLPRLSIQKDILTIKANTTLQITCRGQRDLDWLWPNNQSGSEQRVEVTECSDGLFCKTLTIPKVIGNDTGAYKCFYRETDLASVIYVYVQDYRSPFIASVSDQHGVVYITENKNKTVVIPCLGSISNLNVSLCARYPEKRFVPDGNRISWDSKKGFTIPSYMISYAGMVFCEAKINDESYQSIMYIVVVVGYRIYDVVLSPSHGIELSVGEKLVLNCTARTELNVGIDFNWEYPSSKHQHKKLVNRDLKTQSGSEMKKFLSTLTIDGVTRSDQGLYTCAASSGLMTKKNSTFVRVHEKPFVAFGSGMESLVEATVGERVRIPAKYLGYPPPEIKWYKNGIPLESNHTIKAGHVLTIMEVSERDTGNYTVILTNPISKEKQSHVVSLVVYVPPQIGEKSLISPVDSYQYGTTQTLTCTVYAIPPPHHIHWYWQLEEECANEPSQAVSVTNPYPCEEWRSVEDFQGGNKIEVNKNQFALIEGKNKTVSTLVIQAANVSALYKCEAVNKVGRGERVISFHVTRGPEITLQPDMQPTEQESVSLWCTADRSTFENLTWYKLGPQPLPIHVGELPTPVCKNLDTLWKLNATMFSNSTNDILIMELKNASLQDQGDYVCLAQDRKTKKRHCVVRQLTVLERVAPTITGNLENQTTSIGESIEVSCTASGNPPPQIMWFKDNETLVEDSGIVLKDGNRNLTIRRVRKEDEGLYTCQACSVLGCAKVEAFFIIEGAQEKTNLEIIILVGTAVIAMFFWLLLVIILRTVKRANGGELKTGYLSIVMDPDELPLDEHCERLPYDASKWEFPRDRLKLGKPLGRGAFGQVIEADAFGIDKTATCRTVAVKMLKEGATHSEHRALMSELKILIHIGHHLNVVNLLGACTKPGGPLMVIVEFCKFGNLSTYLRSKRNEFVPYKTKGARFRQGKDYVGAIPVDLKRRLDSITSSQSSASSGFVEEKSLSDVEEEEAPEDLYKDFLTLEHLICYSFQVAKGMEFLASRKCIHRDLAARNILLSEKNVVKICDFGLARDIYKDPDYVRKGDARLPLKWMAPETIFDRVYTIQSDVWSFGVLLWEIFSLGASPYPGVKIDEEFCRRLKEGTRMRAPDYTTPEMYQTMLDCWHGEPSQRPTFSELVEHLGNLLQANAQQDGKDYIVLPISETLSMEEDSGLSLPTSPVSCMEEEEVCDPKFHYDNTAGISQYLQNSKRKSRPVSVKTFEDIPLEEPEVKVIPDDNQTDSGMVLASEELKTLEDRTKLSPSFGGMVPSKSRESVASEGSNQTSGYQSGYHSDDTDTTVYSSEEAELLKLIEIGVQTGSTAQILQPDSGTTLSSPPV

SMILES | IC50 [nM]
COc1cc2nccc(Oc3ccc(NC(=O)c4cnc(C)c(-c5cccs5)c4O)cc3F)c2nc1OC [Compound 90, N-[4-[(6,7-Dimethoxy-1,5-naphthyridin-4-yl)oxy]-3-fluoro-phenyl]-4-hydroxy-6-methyl-5-(2-thienyl)pyridine-3-carboxamide] | ≤ 100
COc1cnc2c(Oc3ccc(NC(=O)c4cnc(C)c(-c5ccc(C)o5)c4O)cc3F)ccnc2c1 [Compound 97, N-[3-Fluoro-4-[(7-methoxy-1,5-naphthyridin-4-yl)oxy]phenyl]-4-hydroxy-6-methyl-5-(5-methyl-2-furyl)pyridine-3-carboxamide] | ≤ 100
COc1cc2nccc(Oc3ccc(NC(=O)c4cnc(C)c(-c5ccco5)c4O)cc3F)c2nc1OC [Compound 89, N-[4-[(6,7-Dimethoxy-1,5-naphthyridin-4-yl)oxy]-3-fluorophenyl]-5-(furan-2-yl)-4-hydroxy-6-methylpyridine-3-carboxamide] | ≤ 100
COc1cc2nccc(Oc3ccc(NC(=O)c4c(C)ncc(-c5ccc(C)o5)c4O)cc3F)c2nc1OC [Compound 120, N-[4-[(6,7-Dimethoxy-1,5-naphthyridin-4-yl)oxy]-3-fluorophenyl]-4-hydroxy-2-methyl-5-(5-methylfuran-2-yl)pyridine-3-carboxamide] | ≤ 100
COc1cc2nccc(Oc3ccc(NC(=O)c4cc(Br)c(C)n(-c5ccc(F)cn5)c4=O)cc3F)c2nc1OC [Compound 55, 5-Bromo-N-[4-[(6,7-dimethoxy-1,5-naphthyridin-4-yl)oxy]-3-fluorophenyl]-1-(5-fluoropyridin-2-yl)-6-methyl-2-oxopyridine-3-carboxamide] | 300 to 1000
COc1cc2nccc(Oc3ccc(NC(=O)c4cnc(C)c(-c5ccoc5)c4O)cc3F)c2nc1OC [Compound 95, N-[4-[(6,7-Dimethoxy-1,5-naphthyridin-4-yl)oxy]-3-fluoro-phenyl]-5-(3-furyl)-4-hydroxy-6-methyl-pyridine-3-carboxamide] | ≤ 100
COc1cc2nccc(Oc3ccc(NC(=O)c4cnc(C)c(-c5cncs5)c4O)cc3F)c2nc1OC [Compound 141, N-[4-[(6,7-Dimethoxy-1,5-naphthyridin-4-yl)oxy]-3-fluorophenyl]-4-hydroxy-6-methyl-5-(1,3-thiazol-5-yl)pyridine-3-carboxamide] | ≤ 100
COc1cc2nccc(Oc3ccc(NC(=O)c4c(C)nc(C)c(-c5ccsc5)c4O)cc3F)c2nc1OC [Compound 106] | ≤ 100
COc1cnc2c(Oc3ccc(NC(=O)c4cnc(C)c(-c5ccco5)c4O)cc3F)ccnc2c1 [Compound 96, N-[3-Fluoro-4-[(7-methoxy-1,5-naphthyridin-4-yl)oxy]phenyl]-5-(2-furyl)-4-hydroxy-6-methyl-pyridine-3-carboxamide] | ≤ 100
COc1cnc2c(Oc3ccc(NC(=O)c4cnc(C)c(-c5cccs5)c4O)cc3F)ccnc2c1 [Compound 100, N-[3-Fluoro-4-[(7-methoxy-1,5-naphthyridin-4-yl)oxy]phenyl]-4-hydroxy-6-methyl-5-(2-thienyl)pyridine-3-carboxamide] | ≤ 100
COc1cnc2c(Oc3ccc(NC(=O)c4cnc(C)c(-c5ccsc5)c4O)cc3F)ccnc2c1 [Compound 98, N-[3-Fluoro-4-[(7-methoxy-1,5-naphthyridin-4-yl)oxy]phenyl]-4-hydroxy-6-methyl-5-(3-thienyl)pyridine-3-carboxamide] | ≤ 100
COc1cc2nccc(Oc3ccc(NC(=O)c4c(C)nc(C)c(-c5ccco5)c4O)cc3F)c2nc1OC [Compound 135, N-[4-[(6,7-Dimethoxy-1,5-naphthyridin-4-yl)oxy]-3-fluorophenyl]-5-(furan-2-yl)-4-hydroxy-2,6-dimethylpyridine-3-carboxamide] | ≤ 100
COc1cc2nccc(Oc3ccc(NC(=O)c4c(C)ncc(-c5ccco5)c4O)cc3F)c2nc1OC [Compound 119, N-[4-[(6,7-Dimethoxy-1,5-naphthyridin-4-yl)oxy]-3-fluorophenyl]-5-(furan-2-yl)-4-hydroxy-2-methylpyridine-3-carboxamide] | ≤ 100
COc1cc2nccc(Oc3ccc(NC(=O)c4c(C)nc(C)c(-c5sccc5C)c4O)cc3F)c2nc1OC [Compound 139, N-[4-[(6,7-Dimethoxy-1,5-naphthyridin-4-yl)oxy]-3-fluorophenyl]-4-hydroxy-2,6-dimethyl-5-(3-methylthiophen-2-yl)pyridine-3-carboxamide] | ≤ 100

The remaining lines, values ahead:

IC50 [nM] | SMILES
≤ 100 | COc1cc2nccc(Oc3ccc(NC(=O)c4cnc(C)c(-c5cscn5)c4O)cc3F)c2nc1OC [Compound 142, N-[4-[(6,7-Dimethoxy-1,5-naphthyridin-4-yl)oxy]-3-fluorophenyl]-4-hydroxy-6-methyl-5-(1,3-thiazol-4-yl)pyridine-3-carboxamide]
≤ 100 | COc1cc2nccc(Oc3ccc(NC(=O)c4cnc(C)c(-c5ccc(C(C)C)o5)c4O)cc3F)c2nc1OC [Compound 154, N-[4-[(6,7-Dimethoxy-1,5-naphthyridin-4-yl)oxy]-3-fluorophenyl]-4-hydroxy-6-methyl-5-(5-propan-2-ylfuran-2-yl)pyridine-3-carboxamide]
≤ 100 | COc1cc2nccc(Oc3ccc(NC(=O)c4cn(CCF)c(C)c(-c5ccsc5)c4=O)cc3F)c2nc1OC [Compound 332, N-[4-[(6,7-Dimethoxy-1,5-naphthyridin-4-yl)oxy]-3-fluorophenyl]-1-(2-fluoroethyl)-6-methyl-4-oxo-5-thiophen-3-ylpyridine-3-carboxamide]
100 to 300 | COc1cc2nccc(Oc3ccc(NC(=O)c4c(C)n(C)c(C)c(-c5ccco5)c4=O)cc3F)c2nc1OC [Compound 160, N-[4-[(6,7-Dimethoxy-1,5-naphthyridin-4-yl)oxy]-3-fluorophenyl]-5-(furan-2-yl)-1,2,6-trimethyl-4-oxopyridine-3-carboxamide]
300 to 1000 | COc1cc2nccc(Oc3cc(F)c(NC(=O)c4c(C)n(C)c(C)c(-c5ccco5)c4=O)cc3F)c2nc1OC [Compound 163, N-[4-[(6,7-Dimethoxy-1,5-naphthyridin-4-yl)oxy]-2,5-difluorophenyl]-5-(furan-2-yl)-1,2,6-trimethyl-4-oxopyridine-3-carboxamide]
≤ 100 | CCc1ccc(-c2c(C)ncc(C(=O)Nc3ccc(Oc4ccnc5cc(OC)c(OC)nc45)c(F)c3)c2O)o1 [Compound 153, N-[4-[(6,7-Dimethoxy-1,5-naphthyridin-4-yl)oxy]-3-fluorophenyl]-5-(5-ethylfuran-2-yl)-4-hydroxy-6-methylpyridine-3-carboxamide]
300 to 1000 | COc1cnc2c(Oc3ccc(NC(=O)c4cn(CCF)c(C)c(-c5ccc(C)s5)c4=O)cc3F)ccnc2c1 [Compound 329, 1-(2-Fluoroethyl)-N-[3-fluoro-4-[(7-methoxy-1,5-naphthyridin-4-yl)oxy]phenyl]-6-methyl-5-(5-methylthiophen-2-yl)-4-oxopyridine-3-carboxamide]
≤ 100 | COc1nc2c(Oc3ccc(NC(=O)c4c(C)n(C)c(C)c(-c5ccco5)c4=O)cc3F)ccnc2cc1OCCC1CCC1 [Compound 337, N-[4-[[7-(2-Cyclobutylethoxy)-6-methoxy-1,5-naphthyridin-4-yl]oxy]-3-fluorophenyl]-5-(furan-2-yl)-1,2,6-trimethyl-4-oxopyridine-3-carboxamide]
